Assay results as given in PubChem BioAssay (NCI).
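Dose response: 5 concentrations. Exposure: 48 h. Format: 96-well plates. Endpoint: linear interpolation; highest concentration if not reached. TGI is the concentration that stops growth completely.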

How the values were obtained:
Assay in all cases: DTP human tumour cell line panel, 48 h
786-0 renal = system: 786-0 renal
A498 renal = system: A498 renal
A549 NSCLC = system: A549 NSCLC
ACHN renal = system: ACHN renal
BT-549 breast = system: BT-549 breast
CAKI-1 renal = system: CAKI-1 renal
CCRF-CEM leukemia = system: CCRF-CEM leukemia
COLO 205 colon = system: COLO 205 colon
DU-145 prostate = system: DU-145 prostate
EKVX NSCLC = system: EKVX NSCLC
HCC-2998 colon = system: HCC-2998 colon
HCT-116 colon = system: HCT-116 colon
HCT-15 colon = system: HCT-15 colon
HL-60(TB) leukemia = system: HL-60(TB) leukemia
HOP-62 NSCLC = system: HOP-62 NSCLC
HOP-92 NSCLC = system: HOP-92 NSCLC
HS 578T breast = system: HS 578T breast
HT29 colon = system: HT29 colon
IGROV1 ovarian = system: IGROV1 ovarian
K-562 leukemia = system: K-562 leukemia
KM12 colon = system: KM12 colon
LOX IMVI melanoma = system: LOX IMVI melanoma
M14 melanoma = system: M14 melanoma
MALME-3M melanoma = system: MALME-3M melanoma
MCF7 breast = system: MCF7 breast
MDA-MB-231 breast = system: MDA-MB-231 breast
MDA-MB-435 = system: MDA-MB-435
MDA-N = system: MDA-N
MOLT-4 leukemia = system: MOLT-4 leukemia
NCI-H226 lung = system: NCI-H226 lung
NCI-H23 lung = system: NCI-H23 lung
NCI-H460 lung = system: NCI-H460 lung
NCI-H522 lung = system: NCI-H522 lung
NCI/ADR-RES ovarian = system: NCI/ADR-RES ovarian
OVCAR-3 ovarian = system: OVCAR-3 ovarian
OVCAR-4 ovarian = system: OVCAR-4 ovarian
OVCAR-5 ovarian = system: OVCAR-5 ovarian
OVCAR-8 ovarian = system: OVCAR-8 ovarian
PC-3 prostate = system: PC-3 prostate
RPMI-8226 leukemia = system: RPMI-8226 leukemia
RXF 393 renal = system: RXF 393 renal
SF-268 CNS = system: SF-268 CNS
SF-295 CNS = system: SF-295 CNS
SF-539 CNS = system: SF-539 CNS
SK-MEL-28 melanoma = system: SK-MEL-28 melanoma
SK-MEL-5 melanoma = system: SK-MEL-5 melanoma
SN12C renal = system: SN12C renal
SNB-19 CNS = system: SNB-19 CNS
SNB-75 CNS = system: SNB-75 CNS
SR leukemia = system: SR leukemia
SW-620 colon = system: SW-620 colon
T-47D breast = system: T-47D breast
TK-10 renal = system: TK-10 renal
U251 CNS = system: U251 CNS
UACC-257 melanoma = system: UACC-257 melanoma
UO-31 renal = system: UO-31 renal
SK-MEL-2 melanoma = system: SK-MEL-2 melanoma
SK-OV-3 ovarian = system: SK-OV-3 ovarian
UACC-62 melanoma = system: UACC-62 melanoma

Measured: TGI

Cc1n[nH]c(=O)n1-c1cccnc1
> 100 µM: 786-0 renal | A498 renal | A549 NSCLC | ACHN renal | BT-549 breast | CAKI-1 renal | CCRF-CEM leukemia | COLO 205 colon | DU-145 prostate | EKVX NSCLC | HCC-2998 colon | HCT-116 colon | HCT-15 colon | HL-60(TB) leukemia | HOP-62 NSCLC | HOP-92 NSCLC | HS 578T breast | HT29 colon | IGROV1 ovarian | K-562 leukemia | KM12 colon | LOX IMVI melanoma | M14 melanoma | MALME-3M melanoma | MCF7 breast | MDA-MB-231 breast | MDA-MB-435 | MDA-N | MOLT-4 leukemia | NCI-H226 lung | NCI-H23 lung | NCI-H460 lung | NCI-H522 lung | NCI/ADR-RES ovarian | OVCAR-3 ovarian | OVCAR-4 ovarian | OVCAR-5 ovarian | OVCAR-8 ovarian | PC-3 prostate | RPMI-8226 leukemia | RXF 393 renal | SF-268 CNS | SF-295 CNS | SF-539 CNS | SK-MEL-28 melanoma | SK-MEL-5 melanoma | SN12C renal | SNB-19 CNS | SNB-75 CNS | SR leukemia | SW-620 colon | T-47D breast | TK-10 renal | U251 CNS | UACC-257 melanoma | UO-31 renal

COC(=O)[C@]12CC[C@H]3CN(C(=O)OCc4ccccc4)[C@H]([C@H]31)[C@H](C(=O)OCC[Si](C)(C)C)N2S(=O)(=O)c1ccc(C)cc1
9.68 µM: HOP-92 NSCLC
> 100 µM: 786-0 renal | A498 renal | A549 NSCLC | ACHN renal | BT-549 breast | CAKI-1 renal | CCRF-CEM leukemia | COLO 205 colon | DU-145 prostate | EKVX NSCLC | HCC-2998 colon | HCT-116 colon | HCT-15 colon | HL-60(TB) leukemia | HOP-62 NSCLC | HS 578T breast | HT29 colon | IGROV1 ovarian | K-562 leukemia | KM12 colon | LOX IMVI melanoma | M14 melanoma | MALME-3M melanoma | MCF7 breast | MDA-MB-231 breast | MDA-MB-435 | MDA-N | MOLT-4 leukemia | NCI-H226 lung | NCI-H23 lung | NCI-H460 lung | NCI-H522 lung | NCI/ADR-RES ovarian | OVCAR-3 ovarian | OVCAR-4 ovarian | OVCAR-5 ovarian | OVCAR-8 ovarian | PC-3 prostate | RPMI-8226 leukemia | RXF 393 renal | SF-268 CNS | SF-295 CNS | SF-539 CNS | SK-MEL-2 melanoma | SK-MEL-28 melanoma | SK-MEL-5 melanoma | SK-OV-3 ovarian | SN12C renal | SNB-19 CNS | SR leukemia | SW-620 colon | T-47D breast | TK-10 renal | U251 CNS | UACC-257 melanoma | UACC-62 melanoma | UO-31 renal

COC1/C=C/C(C)C(OC)CC(O)/C=C/C(C)C(C(C)C(OC)C(C)CCC(=O)C(C)C(C/C=C/N(C)C=O)OC)OC(=O)/C=C/C=C(\C)CC(OC)CC2=CC(=O)O[C@@H](C(C)C(OC)C1)[C@H]2O (some centres not stated)
0.41 µM: HCT-116 colon
1.05 µM: MDA-MB-435
0.265 µM: RXF 393 renal
> 6.11 µM: KM12 colon
1.35 µM: HCC-2998 colon
0.3 µM: UO-31 renal
0.168 µM: HOP-92 NSCLC
6.27 µM: T-47D breast
0.385 µM: SK-MEL-28 melanoma
1.21 µM: OVCAR-4 ovarian
0.261 µM: HS 578T breast
> 6.79 µM: DU-145 prostate
0.477 µM: NCI-H460 lung
1.86 µM: OVCAR-5 ovarian
0.776 µM: OVCAR-8 ovarian
0.905 µM: SK-OV-3 ovarian
0.418 µM: COLO 205 colon
1.14 µM: NCI/ADR-RES ovarian
0.653 µM: NCI-H522 lung
> 12.4 µM: SW-620 colon
0.0875 µM: CAKI-1 renal
0.504 µM: UACC-62 melanoma
0.239 µM: SNB-19 CNS
0.409 µM: MCF7 breast
0.318 µM: UACC-257 melanoma
0.362 µM: SF-295 CNS
0.175 µM: M14 melanoma
1.1 µM: A549 NSCLC
0.274 µM: SK-MEL-5 melanoma
> 5.72 µM: SF-268 CNS
0.434 µM: SF-539 CNS
1.32 µM: ACHN renal | EKVX NSCLC
0.32 µM: SNB-75 CNS
0.317 µM: MALME-3M melanoma
0.178 µM: MDA-N
0.503 µM: 786-0 renal
0.106 µM: MDA-MB-231 breast
0.498 µM: BT-549 breast
> 5.01 µM: HT29 colon
0.199 µM: U251 CNS
> 25 µM: HL-60(TB) leukemia | K-562 leukemia | SN12C renal | SR leukemia
0.785 µM: TK-10 renal
1.06 µM: NCI-H23 lung
0.62 µM: HCT-15 colon
1.09 µM: PC-3 prostate
0.131 µM: A498 renal
0.423 µM: IGROV1 ovarian
3.7 µM: RPMI-8226 leukemia
0.16 µM: HOP-62 NSCLC
